According to patent US9738655B2, “Tetrahydroisoquinolines containing substituted azoles as factor XIa inhibitors” (BRISTOL-MYERS SQUIBB COMPANY, priority 2013, dated 2017):
Structures can show the parent of a compound that is named as a salt. Where two headings read alike, the source gives them in different places.

Columns and labels:
[1] = target: purified human plasma kallikrein (Homo sapiens (Human), UniProt P03952); test: Plasma kallikrein enzyme inhibition assay (chromogenic substrate S-2302); format: biochemical
[2] = target: purified human Factor XIa (Homo sapiens (Human), UniProt P03951); test: Factor XIa enzyme inhibition assay (chromogenic substrate S-2366)
[3] = measured at 25° C. (no asterisk)
[4] = read-out: Factor XIa Ki, measured at 25° C.
[5] = measured at 25° C. (no asterisk), TFA salt
[6] = read-out: Factor XIa Ki, measured at 25° C., TFA salt

Sequence of purified human plasma kallikrein (P03952 391-638): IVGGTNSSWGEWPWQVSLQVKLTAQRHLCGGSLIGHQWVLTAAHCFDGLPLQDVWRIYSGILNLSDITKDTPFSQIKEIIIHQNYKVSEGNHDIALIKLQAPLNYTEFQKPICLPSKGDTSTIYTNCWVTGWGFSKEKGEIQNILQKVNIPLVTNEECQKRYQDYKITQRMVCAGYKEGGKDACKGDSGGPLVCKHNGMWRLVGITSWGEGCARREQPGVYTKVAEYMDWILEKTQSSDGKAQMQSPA
Sequence of purified human plasma kallikrein (P03952 20-390 partner): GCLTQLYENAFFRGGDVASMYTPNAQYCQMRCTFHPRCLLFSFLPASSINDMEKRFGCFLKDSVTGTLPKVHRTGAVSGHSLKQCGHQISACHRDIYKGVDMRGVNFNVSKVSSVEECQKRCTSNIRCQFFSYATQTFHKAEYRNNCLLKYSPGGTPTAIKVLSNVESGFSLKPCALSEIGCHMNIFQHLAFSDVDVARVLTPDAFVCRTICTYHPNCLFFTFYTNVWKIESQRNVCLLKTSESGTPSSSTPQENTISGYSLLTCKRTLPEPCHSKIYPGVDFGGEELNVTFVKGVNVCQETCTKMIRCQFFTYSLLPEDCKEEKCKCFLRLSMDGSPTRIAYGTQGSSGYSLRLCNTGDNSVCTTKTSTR
Sequence of purified human Factor XIa (P03951 388-625): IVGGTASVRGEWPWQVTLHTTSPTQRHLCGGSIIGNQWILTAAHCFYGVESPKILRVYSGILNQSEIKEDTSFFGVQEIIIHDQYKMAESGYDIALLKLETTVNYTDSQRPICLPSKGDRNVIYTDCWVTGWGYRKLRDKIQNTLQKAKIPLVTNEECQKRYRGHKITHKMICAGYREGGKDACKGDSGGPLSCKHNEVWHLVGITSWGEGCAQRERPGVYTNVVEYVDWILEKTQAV
Sequence of purified human Factor XIa (P03951 19-387 partner): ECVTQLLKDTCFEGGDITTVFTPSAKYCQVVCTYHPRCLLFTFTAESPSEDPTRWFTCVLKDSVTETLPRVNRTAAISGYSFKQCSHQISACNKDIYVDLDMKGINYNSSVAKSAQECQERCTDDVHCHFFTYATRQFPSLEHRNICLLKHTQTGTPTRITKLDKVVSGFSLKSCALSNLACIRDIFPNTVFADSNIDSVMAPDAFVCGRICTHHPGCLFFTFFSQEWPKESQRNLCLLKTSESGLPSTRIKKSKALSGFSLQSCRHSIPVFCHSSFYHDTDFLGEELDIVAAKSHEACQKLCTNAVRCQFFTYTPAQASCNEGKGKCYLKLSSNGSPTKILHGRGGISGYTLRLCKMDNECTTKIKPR

| SMILES | Ki [1, 3] | Ki [2, 4] | further results |
| --- | --- | --- | --- |
| O=C(O)c1ccc(NC(=O)C2c3cccc(-c4ccc5cn[nH]c5c4)c3CCN2C(=O)c2cn(-c3cccc(Cl)c3F)nn2)cc1 (stereo not shown) [Example 161, 4-(2-(1-(3-chloro-2-fluorophenyl)-1H-1,2,3-triazole-4-carbonyl)-5-(1H-indazol-6-yl)-1,2,3,4-tetrahydroisoquinoline-1-carboxamido)benzoic acid] | 2.46 nM | < 5 nM | – |
| COc1ccc(NC(=O)C2c3cccc(N4CCC(N(C)C)CC4)c3CCN2C(=O)c2cnn(-c3cccc(Cl)c3F)c2)cc1 (stereo not shown) [Example 97, 2-(1-(3-chloro-2-fluorophenyl)-1H-pyrazole-4-carbonyl)-5-(4-(dimethylamino)piperidin-1-yl)-N-(4-methoxyphenyl)-1,2,3,4-tetrahydroisoquinoline-1-carboxamide, TFA salt] | 21.7 nM | 9.13 nM | – |
| CN1CCN(c2cccc3c2CCN(C(=O)c2cn(-c4cccc(Cl)c4F)nn2)C3C(=O)Nc2ccc(C(=O)O)cc2)CC1 (stereo not shown) [Example 211, 4-(2-(1-(3-chloro-2-fluorophenyl)-1H-1,2,3-triazole-4-carbonyl)-5-(4-methylpiperazin-1-yl)-1,2,3,4-tetrahydroisoquinoline-1-carboxamido)benzoic acid, 2 TFA salt] | 0.52 nM | < 5 nM | – |
| COC1CCN(c2cccc3c2CCN(C(=O)c2cnn(-c4cccc(Cl)c4F)c2N)[C@@H]3C(=O)Nc2ccc(C(=O)O)cc2)CC1 [Example 285, (S)-4-(2-(5-amino-1-(3-chloro-2-fluorophenyl)-1H-pyrazole-4-carbonyl)-5-(4-methoxypiperidin-1-yl)-1,2,3,4-tetrahydroisoquinoline-1-carboxamido)benzoic acid, TFA salt] | 19.8 nM | < 5 nM | – |
| COC1CCN(c2cccc3c2CCN(C(=O)C2(C)CC(c4cccc(Cl)c4F)=NO2)C3C(=O)Nc2ccc(C(=O)O)cc2)CC1 (stereo not shown) [Example 267, 4-(2-(3-(3-chloro-2-fluorophenyl)-5-methyl-4,5-dihydroisoxazole-5-carbonyl)-5-(4-methoxypiperidin-1-yl)-1,2,3,4-tetrahydroisoquinoline-1-carboxamido)benzoic acid, TFA salt] | – | – | Ki [1, 5]: 354 nM; Ki [2, 6]: 103 nM |
| Cc1nc(-c2ccc(NC(=O)C3c4cccc(N5CCC(N(C)C)CC5)c4CCN3C(=O)c3cn(-c4cccc(Cl)c4F)nn3)cc2)no1 (stereo not shown) [Example 98, 2-(1-(3-Chloro-2-fluorophenyl)-1H-1,2,3-triazole-4-carbonyl)-5-(4-(dimethylamino)piperidin-1-yl)-N-(4-(5-methyl-1,2,4-oxadiazol-3-yl)phenyl)-1,2,3,4-tetrahydroisoquinoline-1-carboxamide, bis-TFA salt] | 5.2 nM | 6.69 nM | – |
| COC1CCN(c2cccc3c2CCN(C(=O)c2nnn(-c4cccc(Cl)c4F)c2C)C3C(=O)Nc2ccc(-c3ncc[nH]3)cc2)CC1 (stereo not shown) [Example 140, N-(4-(1H-Imidazol-2-yl)phenyl)-2-(1-(3-chloro-2-fluorophenyl)-5-methyl-1H-1,2,3-triazole-4-carbonyl)-5-(4-methoxypiperidin-1-yl)-1,2,3,4-tetrahydroisoquinoline-1-carboxamide, 2 TFA salt] | – | 39.7 nM | Ki ([1]; measured at 37° C. (*)): 2370 nM |
| CC1(O)CCN(c2cccc3c2CCN(C(=O)c2cn(-c4cccc(Cl)c4F)nn2)C3C(=O)Nc2ccc(C(=O)O)cc2)CC1 (stereo not shown) [Example 67, 4-(2-(1-(3-chloro-2-fluorophenyl)-1H-1,2,3-triazole-4-carbonyl)-5-(4-hydroxy-4-methylpiperidin-1-yl)-1,2,3,4-tetrahydroisoquinoline-1-carboxamido)benzoic acid, TFA salt] | 7.17 nM | < 5 nM | – |
| CO[C@@H]1CCN(c2cccc3c2CCN(C(=O)[C@H]2CC(c4cccc(Cl)c4F)=NO2)[C@@H]3C(=O)Nc2ccc(C(=O)O)cc2)C1 [Example 300, 4-((S)-2-((R)-3-(3-chloro-2-fluorophenyl)-4,5-dihydroisoxazole-5-carbonyl)-5-((R)-3-methoxypyrrolidin-1-yl)-1,2,3,4-tetrahydroisoquinoline-1-carboxamido)benzoic acid, TFA salt] | 4.15 nM | < 5 nM | – |
| CC1(COc2cccc3c2CCN(C(=O)c2cn(-c4cccc(Cl)c4F)nn2)C3C(=O)Nc2ccc(C(=O)O)cc2)COC1 (stereo not shown) [Example 124, 4-(2-(1-(3-Chloro-2-fluorophenyl)-1H-1,2,3-triazole-4-carbonyl)-5-((3-methyloxetan-3-yl)methoxy)-1,2,3,4-tetrahydroisoquinoline-1-carboxamido)benzoic acid] | – | < 5 nM | Ki ([1]; measured at 37° C. (*)): 36.2 nM |
| CN(C)C1CCN(c2cccc3c2CCN(C(=O)c2cnn(-c4cccc(Cl)c4F)c2)[C@@H]3C(=O)Nc2ccc(C(=O)O)cc2)CC1 (single isomer, unassigned) [Example 52, bis-TFA salt] | 1.79 nM | < 5 nM | – |
| COC1CCN(c2cccc3c2CCN(C(=O)[C@H]2CC(c4cccc(Cl)c4F)=NO2)[C@@H]3C(=O)Nc2ccccc2F)CC1 (single isomer, unassigned) [Example 235, TFA salt] | – | – | Ki ([1]; measured at 37° C. (*)): 478 nM; Ki [2]: 23.2 nM |
| COC1CCN(c2cccc3c2CCN(C(=O)C2CC(=O)N(c4cccc(Cl)c4F)C2)C3C(=O)Nc2ccc(C(=O)O)cc2)CC1 (stereo not shown) [Example 260, 4-(2-(1-(3-chloro-2-fluorophenyl)-5-oxopyrrolidine-3-carbonyl)-5-(4-methoxypiperidin-1-yl)-1,2,3,4-tetrahydroisoquinoline-1-carboxamido)benzoic acid, TFA salt] | – | – | Ki [1, 5]: 4750 nM; Ki [2, 6]: 2460 nM |
| O=C(O)c1ccc(NC(=O)C2c3cccc(N4CCOCC4=O)c3CCN2C(=O)c2cn(-c3cccc(Cl)c3F)nn2)cc1 (stereo not shown) [Example 69, 4-(2-(1-(3-chloro-2-fluorophenyl)-1H-1,2,3-triazole-4-carbonyl)-5-(3-oxomorpholino)-1,2,3,4-tetrahydroisoquinoline-1-carboxamido)benzoic acid] | 9.92 nM | < 5 nM | – |
| O=C(O)c1ccc(NC(=O)C2c3cccc(N4CCC(N5CCCC5)CC4)c3CCN2C(=O)C2CC(c3cccc(Cl)c3)=NO2)cc1 (single isomer, unassigned) [Example 203, 4-(2-(3-(3-chlorophenyl)-4,5-dihydroisoxazole-5-carbonyl)-5-(4-(pyrrolidin-1-yl)piperidin-1-yl)-1,2,3,4-tetrahydroisoquinoline-1-carboxamido)benzoic acid, 2 TFA salt] | 1.29 nM | – | Ki [2]: < 5 nM |
| CC(C)(O)C1CCN(c2cccc3c2CCN(C(=O)C2CC(c4cccc(Cl)c4F)=NO2)C3C(=O)Nc2ccc(C(=O)O)cc2)CC1 (stereo not shown) [Example 262, 4-(2-(3-(3-chloro-2-fluorophenyl)-4,5-dihydroisoxazole-5-carbonyl)-5-(4-(2-hydroxypropan-2-yl)piperidin-1-yl)-1,2,3,4-tetrahydroisoquinoline-1-carboxamido)benzoic acid, TFA salt] | – | – | Ki [1, 5]: 4.36 nM; Ki [2, 6]: < 5 nM |
| COC1CCN(c2cccc3c2CCN(C(=O)c2cnn(-c4cccc(Cl)c4F)c2C)C3C(=O)Nc2ccc(C(=O)O)cc2)CC1 (racemic) [Example 259, 4-(2-(1-(3-chloro-2-fluorophenyl)-5-methyl-1H-pyrazole-4-carbonyl)-5-(4-methoxypiperidin-1-yl)-1,2,3,4-tetrahydroisoquinoline-1-carboxamido)benzoic acid, TFA salt] | 77.9 nM | – | Ki [2]: < 5 nM |
| O=C(O)c1ccc(NC(=O)[C@@H]2c3cccc(N4CCOCC4)c3CCN2C(=O)[C@H]2CC(c3cccc(Cl)c3F)=NO2)cc1 [Example 295, 4-((S)-2-((R)-3-(3-chloro-2-fluorophenyl)-4,5-dihydroisoxazole-5-carbonyl)-5-morpholino-1,2,3,4-tetrahydroisoquinoline-1-carboxamido)benzoic acid, TFA salt] | 2.44 nM | – | – |
| COC1CCN(c2cccc3c2CCN(C(=O)C2CC(c4cccc(Cl)c4F)=NO2)C3C(=O)Nc2ccc(C(=O)O)cc2)CC1 (single isomer, unassigned) [Example 303, 4-(2-(3-(3-chloro-2-fluorophenyl)-4,5-dihydroisoxazole-5-carbonyl)-5-(4-methoxypiperidin-1-yl)-1,2,3,4-tetrahydroisoquinoline-1-carboxamido)benzoic acid, TFA salt] | – | – | Ki [1, 5]: 1960 nM |
| CC(C)c1nnc2n1CCN(c1cccc3c1CCN(C(=O)[C@@H]1CC(c4cccc(Cl)c4F)=NO1)[C@H]3C(=O)Nc1ccc(C(=O)O)cc1)C2 [Example 339, 4-((R)-2-((S)-3-(3-Chloro-2-fluorophenyl)-4,5-dihydroisoxazole-5-carbonyl)-5-(3-isopropyl-5,6-dihydro-[1,2,4]triazolo[4,3-a]pyrazin-7(8H)-yl)-1,2,3,4-tetrahydroisoquinoline-1-carboxamido)benzoic acid, TFA salt] | – | – | Ki ([1]; measured at 37° C. (*)): 84.6 nM |
| O=C(O)c1ccc(NC(=O)[C@@H]2c3cccc(-c4cncc(F)c4)c3CCN2C(=O)[C@H]2CC(c3cccc(Cl)c3F)=NO2)cc1 [Example 21, 4-((S)-2-((R)-3-(3-Chloro-2-fluorophenyl)-4,5-dihydroisoxazole-5-carbonyl)-5-(5-fluoropyridin-3-yl)-1,2,3,4-tetrahydroisoquinoline-1-carboxamido)benzoic acid, TFA salt] | – | – | Ki ([1]; measured at 37° C. (*)): 9.6 nM |
| O=C(O)c1ccc(NC(=O)[C@H]2c3cccc(-n4cnnc4)c3CCN2C(=O)[C@H]2CC(c3cccc(Cl)c3F)=NO2)cc1 [Example 248, 4-((R)-2-((R)-3-(3-Chloro-2-fluorophenyl)-4,5-dihydroisoxazole-5-carbonyl)-5-(4H-1,2,4-triazol-4-yl)-1,2,3,4-tetrahydroisoquinoline-1-carboxamido)benzoic acid, TFA salt] | – | – | Ki ([1]; measured at 37° C. (*)): 83.2 nM |
| O=C(O)c1ccc(NC(=O)[C@H]2c3cccc(N4CCCCC4)c3CCN2C(=O)[C@H]2CC(c3cccc(Cl)c3F)=NO2)cc1 [Example 292, 4-((R)-2-((R)-3-(3-chloro-2-fluorophenyl)-4,5-dihydroisoxazole-5-carbonyl)-5-(piperidin-1-yl)-1,2,3,4-tetrahydroisoquinoline-1-carboxamide)benzoic acid, TFA salt] | 758 nM | – | – |
